As a reminder, the inhibition is the relative decrease from the control value, in per cent.

This is an account of results in ChEMBL document CHEMBL5390237, “Discovery of Selective Histone Deacetylase 1 and 2 Inhibitors: Screening of a Focused Library Constructed by Click Chemistry, Kinetic Binding Analysis, and Biological Evaluation” (J Med Chem, 2023).

Histone deacetylase 2, sequence (Q92769 whole entry): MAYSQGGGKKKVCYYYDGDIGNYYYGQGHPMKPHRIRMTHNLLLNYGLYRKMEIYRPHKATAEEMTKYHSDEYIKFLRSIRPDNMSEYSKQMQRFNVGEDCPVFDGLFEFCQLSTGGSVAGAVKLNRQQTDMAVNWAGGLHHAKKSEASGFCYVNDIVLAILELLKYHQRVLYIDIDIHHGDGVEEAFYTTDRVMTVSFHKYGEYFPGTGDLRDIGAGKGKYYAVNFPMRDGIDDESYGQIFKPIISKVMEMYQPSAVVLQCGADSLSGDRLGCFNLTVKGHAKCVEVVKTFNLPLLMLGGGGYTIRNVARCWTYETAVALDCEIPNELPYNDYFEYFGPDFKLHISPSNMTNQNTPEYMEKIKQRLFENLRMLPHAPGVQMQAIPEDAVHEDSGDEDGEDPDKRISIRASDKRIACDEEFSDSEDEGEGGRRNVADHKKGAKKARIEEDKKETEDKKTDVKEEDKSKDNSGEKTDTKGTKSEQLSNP

The assay addresses Histone deacetylase 2 (Homo sapiens, UniProt Q92769). Kind of assay: Inhibition of full-length recombinant human C-terminal GST tagged HDAC2 expressed in Sf9 insect cells using aminoluciferin peptide substrate at 100 nM preincubated for 3 hrs followed by substrate addition and measured after 30 mins by HDAC-Glo I/II chemiluminescence assay. The conditions noted are these: time 3.5 hrs.
Regarding `Nc1ccc(-c2ccsc2)cc1NC(=O)c1cn(-c2ccc(I)cc2)nn1`, the inhibition is 0%.

On to `Nc1ccc(-c2cccs2)cc1NC(=O)CCc1cn(CCCCCCC(=O)O)nn1`, for which the inhibition came to 9%.

Take `Nc1ccc(-c2cccs2)cc1NC(=O)c1cccc(-c2cn(CCc3ccc(C(=O)O)cc3)nn2)c1`: the inhibition stood at 14%.

Turning to `Nc1ccc(-c2ccc(F)cc2)cc1NC(=O)CCc1cn(CCc2ccccc2)nn1`, the inhibition came out at 37%.

Turning to `Nc1ccc(-c2cccs2)cc1NC(=O)c1ccc(-c2cn(CC(=O)c3ccccc3)nn2)cc1`, the inhibition was 61%.

Turning to `Nc1ccc(-c2cccs2)cc1NC(=O)c1ccc(-c2cn(CCC34CC5CC(CC(C5)C3)C4)nn2)cc1`, the inhibition came to 5%.

Turning to `Nc1ccc(-c2ccccc2)cc1NC(=O)c1cn(CCCCC(=O)O)nn1`, the inhibition is 0%.

As for `Nc1ccc(-c2cccs2)cc1NC(=O)CCc1cn(CC(=O)Nc2ccc(F)cc2)nn1`, the inhibition is 30%.

Regarding `Nc1ccc(-c2ccccc2)cc1NC(=O)c1cn(Cc2ccc(OC(F)(F)F)cc2)nn1`, the inhibition was found to be 0%.

On to `Nc1ccc(-c2cccs2)cc1NC(=O)c1cccc(-c2cn(/C=C/c3ccccc3)nn2)c1`, for which the inhibition came to 10%.

`COc1ccc(-n2cc(-c3cccc(C(=O)Nc4cc(-c5cccs5)ccc4N)c3)nn2)cc1`: the inhibition turned out to be 14%.

For `Nc1ccc(-c2ccccc2)cc1NC(=O)c1cn(CCc2cccc(-c3ccccc3)c2)nn1`, the inhibition turned out to be 0%.

`COc1ccc(-n2cc(C(=O)Nc3cc(-c4ccsc4)ccc3N)nn2)cc1`: the inhibition stood at 22%.

Consider `Nc1ccc(-c2cccs2)cc1NC(=O)c1cn(Cc2ccc(-c3ccccc3)cc2)nn1`, for which the inhibition stood at 0%.

On to `Nc1ccc(-c2cccs2)cc1NC(=O)CCc1cn(-c2ccc(O)cc2)nn1`, for which the inhibition is 12%.

Take `Nc1ccc(-c2ccccc2)cc1NC(=O)CCc1cn(Cc2cccc(C(=O)O)c2)nn1`: the inhibition was 0%.

In the case of `Nc1ccc(-c2ccccc2)cc1NC(=O)CCc1cn(CCc2cccc(Cl)c2)nn1`, the inhibition worked out at 1%.

In the case of `Cc1ccc(CCn2cc(-c3ccc(C(=O)Nc4cc(-c5cccs5)ccc4N)s3)nn2)cc1`, the inhibition came to 22%.

Take `Nc1ccc(-c2cccs2)cc1NC(=O)c1cn(CCCCCC(=O)O)nn1`: the inhibition was 0%.

With `Nc1ccc(-c2cccs2)cc1NC(=O)c1ccc(-c2cn(CCc3ccccc3C(F)(F)F)nn2)cc1`, the inhibition amounted to 0%.

For `Nc1ccc(-c2cccs2)cc1NC(=O)CCc1cn(CCc2ccccc2[N+](=O)[O-])nn1`, the inhibition was found to be 24%.

For `Nc1ccc(-c2cccs2)cc1NC(=O)c1cn(CCc2cccc3ccccc23)nn1`, the inhibition was 0%.

Take `Cc1cccc(CCn2cc(C(=O)Nc3cc(-c4ccccc4)ccc3N)nn2)c1`: the inhibition was determined as 1%.

For the molecule `Nc1ccc(-c2ccsc2)cc1NC(=O)c1cn(CCc2ccccc2Cl)nn1`, the inhibition was determined as 0%.

`Nc1ccc(-c2ccc(F)cc2)cc1NC(=O)c1cn(CCCCCC(=O)O)nn1`: the inhibition worked out at 20%.

`Nc1ccc(-c2cccnc2)cc1NC(=O)CCc1cn(CC(=O)c2ccccc2)nn1`: the inhibition was 3%.

For `Nc1ccc(-c2cccnc2)cc1NC(=O)CCc1cn(-c2ccc(Br)cc2)nn1`, the inhibition was 2%.

As for `Nc1ccc(-c2ccsc2)cc1NC(=O)c1cn(-c2ccccc2-c2ccccc2)nn1`, the inhibition was determined as 0%.

Consider `Nc1ccc(-c2ccsc2)cc1NC(=O)c1cn(CCc2ccccc2[N+](=O)[O-])nn1`, for which the inhibition amounted to 2%.

As for `Nc1ccc(-c2ccsc2)cc1NC(=O)CCc1cn(C[S+]([O-])c2ccccc2)nn1` (centres undefined), the inhibition stood at 8%.

`Nc1ccc(-c2ccc(F)cc2)cc1NC(=O)c1cn(CCC23CC4CC(CC(C4)C2)C3)nn1`: the inhibition is 2%.

Regarding `Nc1ccc(-c2ccsc2)cc1NC(=O)c1cn(-c2ccc(Br)cc2)nn1`, the inhibition is 0%.

With `Nc1ccc(-c2ccccc2)cc1NC(=O)c1cn(Cc2cccc(C(=O)O)c2)nn1`, the inhibition is 0%.

On to `Nc1ccc(-c2ccc(F)cc2)cc1NC(=O)c1cn(CCc2ccccn2)nn1`, for which the inhibition was found to be 16%.

On to `Nc1ccc(-c2ccc(F)cc2)cc1NC(=O)c1cn(CCc2ccc(C(=O)O)cc2)nn1`, for which the inhibition was 31%.

Regarding `Nc1ccc(-c2ccsc2)cc1NC(=O)c1cn(Cc2ccc(Oc3ccccc3)cc2)nn1`, the inhibition is 0%.

For the molecule `Nc1ccc(-c2ccccc2)cc1NC(=O)CCc1cn(CCCCCCC(=O)O)nn1`, the inhibition amounted to 0%.

Turning to `Nc1ccc(-c2ccc(F)cc2)cc1NC(=O)c1cn(CCc2ccc(F)cc2)nn1`, the inhibition turned out to be 0%.

For `Nc1ccc(-c2ccc(F)cc2)cc1NC(=O)c1cn(CC23CC4CC(CC(C4)C2)C3)nn1`, the inhibition was 0%.

As to `Nc1ccc(-c2cccs2)cc1NC(=O)c1cn(CCC2CCCC2)nn1`, the inhibition came to 0%.

As to `Cc1cccc(CCn2cc(-c3ccc(C(=O)Nc4cc(-c5cccs5)ccc4N)cc3)nn2)c1`, the inhibition came out at 26%.

Consider `Nc1ccc(-c2cccnc2)cc1NC(=O)CCc1cn(CCc2ccccn2)nn1`, for which the inhibition was found to be 0%.

`Nc1ccc(-c2ccsc2)cc1NC(=O)CCc1cn(-c2ccc([N+](=O)[O-])cc2)nn1`: the inhibition was determined as 0%.

Regarding `Nc1ccc(-c2ccc(F)cc2)cc1NC(=O)CCc1cn(CCc2cccc(Cl)c2)nn1`, the inhibition was determined as 17%.

For the molecule `Nc1ccc(-c2cccs2)cc1NC(=O)c1ccc(-c2cn(CCc3cccc4ccccc34)nn2)s1`, the inhibition worked out at 0%.

`Cc1cccc(CCn2cc(CCC(=O)Nc3cc(-c4ccc(F)cc4)ccc3N)nn2)c1`: the inhibition worked out at 36%.

For the molecule `COc1ccc(-n2cc(C(=O)Nc3cc(-c4ccc(F)cc4)ccc3N)nn2)cc1`, the inhibition was 16%.

For `Cc1cccc(CCn2cc(-c3cccc(C(=O)Nc4cc(-c5cccs5)ccc4N)c3)nn2)c1`, the inhibition is 5%.

On to `Nc1ccc(-c2ccsc2)cc1NC(=O)CCc1cn(CCN2CCc3ccccc3C2)nn1`, for which the inhibition is 18%.

For the molecule `Nc1ccc(-c2ccsc2)cc1NC(=O)c1cn(CCc2cccc3ccccc23)nn1`, the inhibition is 0%.

Regarding `Nc1ccc(-c2ccsc2)cc1NC(=O)CCc1cn(Cc2ccc(Oc3ccccc3)cc2)nn1`, the inhibition came to 0%.

`Nc1ccc(-c2cccs2)cc1NC(=O)CCc1cn(CCc2cccc(Cl)c2)nn1`: the inhibition is 9%.

Turning to `COc1ccccc1CCn1cc(CCC(=O)Nc2cc(-c3ccc(F)cc3)ccc2N)nn1`, the inhibition was determined as 10%.

For the molecule `Nc1ccc(-c2ccc(F)cc2)cc1NC(=O)CCc1cn(CCC23CC4CC(CC(C4)C2)C3)nn1`, the inhibition is 0%.

For `Nc1ccc(-c2cccs2)cc1NC(=O)c1ccc(-c2cn(CCc3ccsc3)nn2)s1`, the inhibition was found to be 27%.

On to `Nc1ccc(-c2cccs2)cc1NC(=O)c1cccc(-c2cn(CCc3ccc([N+](=O)[O-])cc3)nn2)c1`, for which the inhibition is 1%.

In the case of `Cc1ccc(-n2cc(CCC(=O)Nc3cc(-c4ccccc4)ccc3N)nn2)cc1C`, the inhibition came out at 0%.

As for `Nc1ccc(-c2cccs2)cc1NC(=O)c1ccc(-c2cn(CCc3ccc(C(F)(F)F)cc3)nn2)s1`, the inhibition came out at 0%.

Regarding `Nc1ccc(-c2ccccc2)cc1NC(=O)CCc1cn(Cc2ccc(OC(F)(F)F)cc2)nn1`, the inhibition is 0%.

Consider `Nc1ccc(-c2ccsc2)cc1NC(=O)c1cn(Cc2cccc(-c3ccccc3)c2)nn1`, for which the inhibition came to 0%.

Consider `Nc1ccc(-c2cccs2)cc1NC(=O)c1cn(Cc2cccc(C(=O)O)c2)nn1`, for which the inhibition was 0%.

For the molecule `Nc1ccc(-c2cccs2)cc1NC(=O)c1cccc(-c2cn(CCCCCc3ccccc3)nn2)c1`, the inhibition stood at 0%.

With `Nc1ccc(-c2ccccc2)cc1NC(=O)c1cn(CC(=O)c2ccccc2)nn1`, the inhibition turned out to be 0%.

As for `Nc1ccc(-c2ccc(F)cc2)cc1NC(=O)CCc1cn(CS(=O)(=O)c2ccccc2)nn1`, the inhibition stood at 13%.

As to `Nc1ccc(-c2ccccc2)cc1NC(=O)CCc1cn(Cc2ccc(Oc3ccccc3)cc2)nn1`, the inhibition amounted to 0%.

In the case of `Cc1ccc(CCn2cc(C(=O)Nc3cc(-c4ccc(F)cc4)ccc3N)nn2)cc1`, the inhibition was 7%.

Turning to `Nc1ccc(-c2cccnc2)cc1NC(=O)CCc1cn(CCc2ccc(Cl)cc2)nn1`, the inhibition stood at 7%.

On to `Nc1ccc(-c2cccs2)cc1NC(=O)c1cn(Cc2ccc(C(=O)O)cc2)nn1`, for which the inhibition is 32%.

Turning to `Nc1ccc(-c2ccccc2)cc1NC(=O)CCc1cn(CCc2ccsc2)nn1`, the inhibition is 0%.

On to `Nc1ccc(-c2cccs2)cc1NC(=O)CCc1cn(CCCc2ccccc2)nn1`, for which the inhibition stood at 10%.

Consider `Nc1ccc(-c2cccs2)cc1NC(=O)CCc1cn(CCCCCC(=O)O)nn1`, for which the inhibition was 6%.

Regarding `Nc1ccc(-c2ccc(F)cc2)cc1NC(=O)c1cn(CCc2ccccc2[N+](=O)[O-])nn1`, the inhibition was determined as 12%.

For the molecule `Nc1ccc(-c2cccs2)cc1NC(=O)c1ccc(-c2cn(-c3ccccc3-c3ccccc3)nn2)s1`, the inhibition amounted to 0%.

As to `Nc1ccc(-c2ccccc2)cc1NC(=O)c1cn(CCc2cccc(F)c2)nn1`, the inhibition worked out at 0%.

For the molecule `Cc1csc(CCn2cc(CCC(=O)Nc3cc(-c4ccc(F)cc4)ccc3N)nn2)n1`, the inhibition was 37%.

Consider `Nc1ccc(-c2cccnc2)cc1NC(=O)CCc1cn(CCc2ccc([N+](=O)[O-])cc2)nn1`, for which the inhibition stood at 3%.

In the case of `Nc1ccc(-c2ccccc2)cc1NC(=O)c1cn(-c2ccc(Br)cc2)nn1`, the inhibition was determined as 0%.

`Nc1ccc(-c2ccc(F)cc2)cc1NC(=O)c1cn(Cc2cccc(-c3ccccc3)c2)nn1`: the inhibition came out at 0%.

On to `Nc1ccc(-c2cccnc2)cc1NC(=O)CCc1cn(CCCCCC(=O)O)nn1`, for which the inhibition was 0%.

With `Nc1ccc(-c2cccs2)cc1NC(=O)c1ccc(-c2cn(-c3ccc(I)cc3)nn2)cc1`, the inhibition came to 0%.

For `Nc1ccc(-c2ccsc2)cc1NC(=O)CCc1cn(CCc2cccc(F)c2)nn1`, the inhibition came out at 21%.

As for `Nc1ccc(-c2cccnc2)cc1NC(=O)CCc1cn(CC23CC4CC(CC(C4)C2)C3)nn1`, the inhibition is 2%.

Take `Nc1ccc(-c2cccs2)cc1NC(=O)c1cn(-c2ccc(Br)cc2)nn1`: the inhibition was 0%.

For the molecule `Nc1ccc(-c2cccs2)cc1NC(=O)c1cn(CCCc2ccccc2)nn1`, the inhibition was found to be 9%.
